Experiments:
[1] = system: ECHCG (Echinochloa crusgalli, barnyardgrass); test: In-water applied mixtures, transplanted paddy rice, greenhouse; assay type: in vivo, Echinochloa crusgalli (L.) Beauv.; settings: 21 DAA
Protocol: Weed seeds or nutlets of the desired test plant species were planted in puddled soil (mud) prepared by mixing a shredded, non-sterilized mineral soil (50.5 percent silt, 25.5 percent clay, and 24 percent sand, with a pH of about 7.6 and an organic matter content of about 2.9 percent) and water at a 1:1 volumetric ratio. The prepared mud was dispensed in 365 mL aliquots into 16-ounce (oz.) non-perforated plastic pots with a surface area of 86.59 square centimeters (cm^2) leaving a headspace of 3 centimeters (cm) in each pot Mud was allowed to dry overnight prior to planting or transplanting. Rice seeds were planted in Sun Gro MetroMix® 306 planting mixture, which typically has a pH of 6.0 to 6.8 and an organic matter content of about 30 percent, in plastic plug trays. Seedlings at the second or third leaf stage of growth were transplanted into 840 mL of mud contained in 32-oz. non-perforated plastic pots with a surface area of 86.59 cm^2 4 days prior to herbicide application. The paddy was created by filling the headspace of the pots with 2.5 to 3 cm of water. When required to ensure good germination and healthy plants, a fungicide treatment and/or other chemical or physical treatment was applied. The plants were grown for 4-22 days in a greenhouse with an approximate 14 h photoperiod which was maintained at about 29° C during the day and 26° C. during the night. Nutrients were added as Osmocote® (19:6:12, N:P:K+ minor nutrients) at 2 g per 16-oz. pot and 4 g per 32-oz. pot. Water was added on a regular basis to maintain the paddy flood, and supplemental lighting was provided with overhead metal halide 1000-Watt lamps as necessary. The plants were employed for testing when they reached the first through fourth true leaf stage. […]
Treatment requirements for each compound or herbicidal component were calculated based upon the rates being tested, the concentration of active ingredient or acid equivalent in the formulation, an application volume of 2 mL per component per pot, and an application area of 86.59 cm^2 per pot.
For formulated compounds, a measured amount was placed in an individual 100 or 200 mL glass vial and was dissolved in a volume of 1.25% (v/v) Agri-Dex® crop oil concentrate to obtain application solutions. […]
The treated plants and control plants were placed in a greenhouse as described above and water was added as needed to maintain a paddy flood. After approximately 3 weeks the condition of the test plants as compared with that of the untreated plants was determined visually and scored on a scale of 0 to 100 percent where 0 corresponds to no injury or growth inhibition and 100 corresponds to complete kill. […]

[2] = system: AMARE (Amaranthus retroflexus, redroot pigweed); test: Postemergence herbicidal activity of mixtures in cereal crops, greenhouse; assay type: in vivo, Amaranthus retroflexus L.
Protocol: Seeds of the desired test plant species were planted in Sun Gro MetroMix® 306 planting mixture, which typically has a pH of 6.0 to 6.8 and an organic matter content of about 30 percent, in plastic pots with a surface area of 103.2 square centimeters (cm^2). When required to ensure good germination and healthy plants, a fungicide treatment and/or other chemical or physical treatment was applied. The plants were grown for 7-36 days in a greenhouse with an approximate 14 hour photoperiod which was maintained at about 18° C. during the day and about 17° C. during the night. Nutrients and water were added on a regular basis and supplemental lighting was provided with overhead metal halide 1000-Watt lamps as necessary. The plants were employed for testing when they reached the second or third true leaf stage.
Treatments consisted of the benzyl ester of 4-amino-3-chloro-5-fluoro-6-(4-chloro-2-fluoro-3-methoxy-phenyl)pyridine-2-carboxylic acid (Compound A), formulated as an SC, a second cereal herbicide alone and then both in combination.
Other herbicidal components were applied on an active ingredient basis and included PSII-inhibiting herbicides.
Measured aliquots of benzyl ester of 4-amino-3-chloro-5-fluoro-6-(4-chloro-2-fluoro-3-methoxy-phenyl)pyridine-2-carboxylic acid (Compound A) were placed in 25 milliliter (mL) glass vials and diluted in a volume of 1.25% (v/v) Agri-Dex® crop oil concentrate to obtain stock solutions. Compound requirements are based upon a 12 mL application volume at a rate of 187 liters per hectare (L/ha). Spray solutions of the second cereal herbicide and experimental compound mixtures were prepared by adding the stock solutions to the appropriate amount of dilution solution to form 12 mL spray solution with active ingredients in two- and three-way combinations. Formulated compounds were applied to the plant material with an overhead Mandel track sprayer equipped with an 8002E nozzle calibrated to deliver 187 L/ha over an application area of 0.503 square meters (m^2) at a spray height of 18 inches (46 cm) above average plant canopy. Control plants were sprayed in the same manner with the solvent blank.
The treated plants and control plants were placed in a greenhouse as described above and watered by sub-irrigation to prevent wash-off of the test compounds. After 20-22 days, the condition of the test plants as compared with that of the control plants was determined visually and scored on a scale of 0 to 100 percent where 0 corresponds to no injury and 100 corresponds to complete kill.
Colby's equation was used to determine the herbicidal effects expected from the mixtures (Colby, S. R. 1967. Calculation of the synergistic and antagonistic response of herbicide combinations. Weeds 15:20-22). […]

SMILES	Visual Weed Control (%) Obs ([1]; 8.75 g ae/ha) [%]	Visual Weed Control (%) Obs ([1]; 17.5 g ae/ha) [%]	Visual Weed Control (%) - 21 DAA AMARE Obs ([2]; Compound A Benzyl Ester 2.5 g ai/ha) [%]	Visual Weed Control (%) - 21 DAA AMARE Obs ([2]; Compound A Benzyl Ester 5 g ai/ha) [%]
COc1c(Cl)ccc(-c2nc(C(=O)O)c(Cl)c(N)c2F)c1F [Compound A Acid, 4-amino-3-chloro-6-(4-chloro-2-fluoro-3-methoxyphenyl)-5-fluoropyridine-2-carboxylic acid]	0	0	–	–
COc1c(Cl)ccc(-c2nc(C(=O)OCc3ccccc3)c(Cl)c(N)c2F)c1F [Compound A Benzyl Ester, benzyl ester of 4-amino-3-chloro-5-fluoro-6-(4-chloro-2-fluoro-3-methoxy-phenyl)pyridine-2-carboxylic acid]	–	–	20	38

Reference: patent US8912121B2, “Herbicidal compositions comprising 4-amino-3-chloro-5-fluoro-6-(4-chloro-2-fluoro-3-methoxyphenyl)pyridine-2-carboxylic acid or a derivative thereof and certain PS II inhibitors” (Dow Agrosciences LLC, priority 2012, dated 2014)
